We go through 20 compounds from patent US6933298B2, “Pyridine-2,4-dicarboxylic acid diamides and pyrimidine-4,6-dicarboxylic acid diamides and the use thereof for selectively inhibiting collagenases” (Aventis Pharma Deutschland GmbH, priority 2001, dated 2005).

Usually IC50 stands for the concentration that gives 50% inhibition.

The target in this test is T1, catalytic domain of human collagenase-3 (MMP-13) (Homo sapiens, UniProt P45452).
T1 construct: Determining the enzymic activity of the catalytic domain of human collagenase-3 (MMP-13); purchased INVITEK, Berlin 30 100 803
The test can be described thus: Enzymic activity of the catalytic domain of human collagenase-3 (MMP-13), fluorogenic substrate. The settings on record: activated with APMA, pH 7.5, read-out: IC50 MMP13. It is filed as biochemical. Here is the method: Determining the enzymic activity of the catalytic domain of human collagenase-3 (MMP-13).
Activation of the proenzyme:
2 parts by volume of proenzyme are incubated with 1 part by volume of APMA solution at 37° C. for 1.5 hours. The APMA solution is prepared from a 10 mmol/l solution of p-aminophenylmercuric acetate in 0.1 mmol/l NaOH by diluting it with 3 parts by volume of Tris/HCl buffer, pH 7.5 (see below). The pH is adjusted to between 7.0 and 7.5 by adding 1 mmol/l HCl.
In order to measure the enzyme activity, 10 μl of enzyme solution are incubated for 15 minutes with 10 μl of a buffered 3% (v/v) solution of dimethyl sulfoxide (reaction 1). In order to measure the enzyme inhibitor activity, 10 μl of enzyme solution are incubated with 10 μl of a buffered 3% (v/v) solution of dimethyl sulfoxide which contains the enzyme inhibitor (reaction 2).
The enzyme activity is presented as increase in extinction/minute.
The buffer solution contains 0.05% Brij (Sigma, Deisenhofen, Germany) and also 0.1 mol of Tris/HCl/l, 0.1 mol of NaCl/1 and 0.01 mol of CaCl2/l (pH=7.5).
The substrate solution contains 0.75 mmol of the fluorogenic substrate (7-methoxycoumarin-4-yl)acetyl-Pro-Leu-Gly-Leu-3-(2′,4′-dinitrophenyl)-L-2,3-diaminopropionyl-Ala-Arg-NH2/I(Bachem, Heidelberg, Germany).
As to `O=C(NCc1ccc(F)c(Cl)c1)c1cc(C(=O)NCc2ccc(F)c(Cl)c2)ncn1` [Example 2, Pyrimidine-4,6-dicarboxylic acid bis(3-chloro-4-fluorobenzylamide)], the IC50 worked out at 23 nM.
On to `O=C(NCc1ccc(Cl)cc1)c1cc(C(=O)NCc2ccc(Cl)cc2)ncn1` [Example 3], for which the IC50 was 5600 nM.
With `O=C(NCc1ccccc1)c1ccnc(C(=O)NCc2ccccc2)c1` [Example 4], the IC50 was found to be 3400 nM.
On to `Cc1ccc(CNC(=O)c2cc(C(=O)NCc3ccc(C)cc3)ncn2)cc1` [Example 5], for which the IC50 amounted to 2000 nM.
Then `O=C(NCc1cccc(OC(F)(F)F)c1)c1cc(C(=O)NCc2cccc(OC(F)(F)F)c2)ncn1` [Example 6], with 700 nM; and `O=C(NCc1ccc(F)cc1)c1ccnc(C(=O)NCc2ccc(F)cc2)c1` [Example 7], with 620 nM.
Regarding `Cc1cccc(CNC(=O)c2ccnc(C(=O)NCc3cccc(C)c3)c2)c1` [Example 8], the IC50 worked out at 400 nM.
Take `COc1ccc(CNC(=O)c2ccnc(C(=O)NCc3ccc(OC)cc3)c2)cc1` [Example 9]: the IC50 amounted to 320 nM.
Take `O=C(NCc1cc(F)cc(F)c1)c1cc(C(=O)NCc2cc(F)cc(F)c2)ncn1` [Example 10]: the IC50 came to 300 nM.
For the compound `O=C(NCc1cccc(C(F)(F)F)c1)c1cc(C(=O)NCc2cccc(C(F)(F)F)c2)ncn1` [Example 11], the IC50 stood at 300 nM.
Consider `O=C(NCc1cccc(Cl)c1)c1ccnc(C(=O)NCc2cccc(Cl)c2)c1` [Example 12], for which the IC50 worked out at 260 nM.
`O=C(NCc1ccc(F)c(C(F)(F)F)c1)c1cc(C(=O)NCc2ccc(F)c(C(F)(F)F)c2)ncn1` [Example 13]: the IC50 amounted to 210 nM.
For `O=C(NCc1cccc(F)c1)c1cc(C(=O)NCc2cccc(F)c2)ncn1` [Example 14], the IC50 was found to be 200 nM.
For the compound `O=C(NCc1ccc(F)cc1)c1cc(C(=O)NCc2ccc(F)cc2)ncn1` [Example 15], the IC50 was 190 nM.
Turning to `O=C(NCc1ccc(F)c(F)c1)c1cc(C(=O)NCc2ccc(F)c(F)c2)ncn1` [Example 16], the IC50 was determined as 105 nM.
As for `COc1ccc(CNC(=O)c2cc(C(=O)NCc3ccc(OC)cc3)ncn2)cc1` [Example 17], the IC50 was 80 nM.
With `O=C(NCc1cccc(Cl)c1)c1cc(C(=O)NCc2cccc(Cl)c2)ncn1` [Example 19], the IC50 amounted to 57 nM.
The result for `O=C(NCc1ccc2c(c1)OCO2)c1cc(C(=O)NCc2ccc3c(c2)OCO3)ncn1` [Example 20] reads 14 nM.
As for `COc1cccc(CNC(=O)c2cc(C(=O)NCc3cccc(OC)c3)ncn2)c1` [Example 21], the IC50 worked out at 10 nM.
Take `O=C(NCc1ccc2c(c1)CCO2)c1cc(C(=O)NCc2ccc3c(c2)CCO3)ncn1` [Example 22]: the IC50 turned out to be 9 nM.
